Source: patent publication US11213030B2, “4-(3,4-dihydronaphth-1-yl or 2H-chromen-4-yl)-5-hydroxy-2H-pyradizin-3-ones as herbicides” (FMC Corporation, priority 2017, dated 2022)

How the values were obtained:
Assay type in all cases: in vivo
[1] = system: barnyardgrass (Echinochloa crus-galli); test: Test A preemergence, barnyardgrass; conditions: 0 to 100 scale
Source text: (§1) Seeds of plant species selected from barnyardgrass (Echinochloa crus-galli), kochia (Kochia scoparia), ragweed (common ragweed, Ambrosia elatior), ryegrass, It. (Italian ryegrass, Lolium multiflorum), foxtail, green (green foxtail, Setaria viridis), and pigweed (Amaranthus retroflexus) were planted into a blend of loam soil and sand and treated preemergence with a directed soil spray using test chemicals formulated in a non-phytotoxic solvent mixture which included a surfactant. At the same time, plants selected from these weed species and also wheat (Triticum aestivum), corn (Zea mays), blackgrass (Alopecurus myosuroides), and galium (catchweed bedstraw, Galium aparine) were planted in pots containing the same blend of loam soil and sand and treated with postemergence applications of test chemicals formulated in the same manner. Plants ranged in height from 2 to 10 cm and were in the one- to two-leaf stage for the postemergence treatment. Treated plants and untreated controls were maintained in a greenhouse for approximately 10 d, after which time all treated plants were compared to untreated controls and visually evaluated for injury. Plant response ratings, summarized in Table A, are based on a 0 to 100 scale where 0 is no effect and 100 is complete control. A dash (-) response means no test result.

kochia (Kochia scoparia) [2] = test: Test A preemergence, kochia; conditions: 0 to 100 scale
Source text: as §1

[3] = system: ragweed (common ragweed, Ambrosia elatior); test: Test A preemergence, ragweed; conditions: 0 to 100 scale
Source text: as §1

[4] = system: ryegrass, It. (Italian ryegrass, Lolium multiflorum); test: Test A preemergence, Italian ryegrass; conditions: 0 to 100 scale
Source text: as §1

[5] = system: pigweed (Amaranthus retroflexus); test: Test A preemergence, pigweed; conditions: 0 to 100 scale
Source text: as §1

[6] = system: barnyardgrass (Echinochloa crus-galli); test: Test A postemergence, barnyardgrass; conditions: 0 to 100 scale
Source text: as §1

kochia (Kochia scoparia) [7] = test: Test A postemergence, kochia; conditions: 0 to 100 scale
Source text: as §1

[8] = system: ragweed (common ragweed, Ambrosia elatior); test: Test A postemergence, ragweed; conditions: 0 to 100 scale
Source text: as §1

[9] = system: ryegrass, It. (Italian ryegrass, Lolium multiflorum); test: Test A postemergence, Italian ryegrass; conditions: 0 to 100 scale; for Plant response rating, Ryegrass, Italian: 500 g ai/ha
Source text: as §1

[10] = system: pigweed (Amaranthus retroflexus); test: Test A postemergence, pigweed; conditions: 0 to 100 scale
Source text: as §1

[11] = system: wheat (Triticum aestivum); test: Test A postemergence, wheat; conditions: 0 to 100 scale
Source text: as §1

corn (Zea mays) = test: Test A postemergence, corn; conditions: 0 to 100 scale
Source text: as §1

[12] = system: blackgrass (Alopecurus myosuroides); test: Test A postemergence, blackgrass; conditions: 0 to 100 scale
Source text: as §1

[13] = system: galium (catchweed bedstraw, Galium aparine); test: Test A postemergence, galium; conditions: 0 to 100 scale
Source text: as §1

[14] = system: barnyardgrass (Echinochloa crus-galli); test: Test B flooded paddy test, barnyardgrass; conditions: Flood, 250 g ai/ha applied to paddy water, 2-leaf stage, 13 to 15 d; scale of 0 to 100 where 0 is no effect and 100 is complete control
Protocol: (§2) Plant species in the flooded paddy test selected from rice (Oryza sativa), sedge, umbrella (small-flower umbrella sedge, Cyperus difformis), ducksalad (Heteranthera limosa), and barnyardgrass (Echinochloa crus-galli) were grown to the 2-leaf stage for testing. At the time of treatment, test pots were flooded to 3 cm above the soil surface, treated by application of test compounds directly to the paddy water, and then maintained at that water depth for the duration of the test. Treated plants and controls were maintained in a greenhouse for 13 to 15 d, after which time all species were compared to controls and visually evaluated. Plant response ratings, summarized in Table B, are based on a scale of 0 to 100 where 0 is no effect and 100 is complete control. A dash (-) response means no test result.

[15] = system: ducksalad (Heteranthera limosa); test: Test B flooded paddy test, ducksalad; conditions: Flood, 250 g ai/ha applied to paddy water, 2-leaf stage, 13 to 15 d; scale of 0 to 100 where 0 is no effect and 100 is complete control
Protocol: as §2

rice (Oryza sativa) = test: Test B flooded paddy test, rice; conditions: Flood, 250 g ai/ha applied to paddy water, 2-leaf stage, 13 to 15 d; scale of 0 to 100 where 0 is no effect and 100 is complete control
Protocol: as §2

[16] = system: sedge, umbrella (small-flower umbrella sedge, Cyperus difformis); test: Test B flooded paddy test, umbrella sedge; conditions: Flood, 250 g ai/ha applied to paddy water, 2-leaf stage, 13 to 15 d; scale of 0 to 100 where 0 is no effect and 100 is complete control
Protocol: as §2

Foxtail, Giant [17] = test: Test A postemergence, giant foxtail; conditions: 0 to 100 scale
Foxtail, Giant [18] = test: Test A preemergence, giant foxtail; conditions: 0 to 100 scale
[19] = system: foxtail, green (green foxtail, Setaria viridis); test: Test A preemergence, green foxtail; conditions: 31 g ai/ha, 0 to 100 scale
Source text: as §1

| SMILES | Plant response rating, Barnyardgrass ([1]; 125 g ai/ha) | Plant response rating, Barnyardgrass ([1]; 500 g ai/ha) | Plant response rating, Kochia (kochia (Kochia scoparia) [2]; 125 g ai/ha) | Plant response rating, Ragweed ([3]; 125 g ai/ha) | Plant response rating, Ryegrass, It. ([4]; 125 g ai/ha) | Plant response rating, Pigweed ([5]; 125 g ai/ha) | Plant response rating, Barnyardgrass ([6]; 125 g ai/ha) | Plant response rating, Kochia (kochia (Kochia scoparia) [7]; 125 g ai/ha) | Plant response rating, Ragweed ([8]; 125 g ai/ha) | Plant response rating, Pigweed ([10]; 125 g ai/ha) | Plant response rating, Wheat ([11]; 125 g ai/ha) | Plant response rating, Corn (corn (Zea mays); 125 g ai/ha) | Plant response rating, Blackgrass ([12]; 125 g ai/ha) | Plant response rating, Galium ([13]; 125 g ai/ha) | Plant response rating, Barnyardgrass [14] | Plant response rating, Ducksalad [15] | Plant response rating, Rice (rice (Oryza sativa)) | Plant response rating, Sedge, Umbrella [16] | Plant response rating, Foxtail, Giant (Foxtail, Giant [17]; 125 g ai/ha) | Plant response rating, Foxtail, Giant (Foxtail, Giant [18]; 125 g ai/ha) | other results |
| --- | --- | --- | --- | --- | --- | --- | --- | --- | --- | --- | --- | --- | --- | --- | --- | --- | --- | --- | --- | --- | --- |
| COc1c(C)nn(C)c(=O)c1C1=CCC(C)(C)c2ccccc21 [Compound 6] | 0 | 30 | 0 | 0 | 0 | 0 | 0 | 0 | 0 | 0 | 0 | 0 | 0 | 0 | 0 | 0 | 0 | 0 | 0 | 0 | Plant response rating, Kochia (kochia (Kochia scoparia) [2]; 500 g ai/ha): 40; Plant response rating, Ragweed ([3]; 500 g ai/ha): 0; Plant response rating, Ryegrass, It. ([4]; 500 g ai/ha): 0; Plant response rating, Pigweed ([5]; 500 g ai/ha): 0; Plant response rating, Barnyardgrass ([6]; 500 g ai/ha): 0; Plant response rating, Kochia (kochia (Kochia scoparia) [7]; 500 g ai/ha): 0; Plant response rating, Ragweed ([8]; 500 g ai/ha): 20; Plant response rating, Ryegrass, Italian [9]: 0; Plant response rating, Pigweed ([10]; 500 g ai/ha): 0; Plant response rating, Wheat ([11]; 500 g ai/ha): 0; Plant response rating, Corn (corn (Zea mays); 500 g ai/ha): 0; Plant response rating, Blackgrass ([12]; 500 g ai/ha): 20; Plant response rating, Galium ([13]; 500 g ai/ha): 0; Plant response rating, Foxtail, Giant (Foxtail, Giant [17]; 500 g ai/ha): 0; Plant response rating, Foxtail, Giant (Foxtail, Giant [18]; 500 g ai/ha): 0 |
| Cc1nn(C)c(=O)c(C2=CCC(C)(C)c3ccccc32)c1O [Compound 7] | 0 | 0 | 0 | 0 | 0 | 0 | 10 | 30 | 0 | 80 | 0 | 0 | 10 | 50 | 0 | 0 | 0 | 0 | 0 | 0 | Plant response rating, Kochia (kochia (Kochia scoparia) [2]; 500 g ai/ha): 0; Plant response rating, Ragweed ([3]; 500 g ai/ha): 0; Plant response rating, Ryegrass, It. ([4]; 500 g ai/ha): 10; Plant response rating, Pigweed ([5]; 500 g ai/ha): 10; Plant response rating, Barnyardgrass ([6]; 500 g ai/ha): 30; Plant response rating, Kochia (kochia (Kochia scoparia) [7]; 500 g ai/ha): 70; Plant response rating, Ragweed ([8]; 500 g ai/ha): 70; Plant response rating, Ryegrass, It. ([9]; 125 g ai/ha): 30; Plant response rating, Ryegrass, Italian [9]: 80; Plant response rating, Pigweed ([10]; 500 g ai/ha): 90; Plant response rating, Wheat ([11]; 500 g ai/ha): 0; Plant response rating, Corn (corn (Zea mays); 500 g ai/ha): 10; Plant response rating, Blackgrass ([12]; 500 g ai/ha): 10; Plant response rating, Galium ([13]; 500 g ai/ha): 70; Plant response rating, Foxtail, Giant (Foxtail, Giant [17]; 500 g ai/ha): 10; Plant response rating, Foxtail, Giant (Foxtail, Giant [18]; 500 g ai/ha): 0 |
| CC1=C(c2c(O)c(Cl)nn(C)c2=O)c2cc(C)ccc2CC1 [Compound 8] | 60 | – | 10 | 30 | 10 | 100 | 80 | 50 | 100 | 100 | 0 | 20 | 30 | 90 | 60 | 90 | 0 | 95 | 80 | 70 | Plant response rating, Barnyardgrass ([1]; 31 g ai/ha): 0; Plant response rating, Ragweed ([3]; 31 g ai/ha): 0; Plant response rating, Ryegrass, It. ([4]; 31 g ai/ha): 0; Plant response rating, Foxtail, Green [19]: 0; Plant response rating, Pigweed ([5]; 31 g ai/ha): 10; Plant response rating, Barnyardgrass ([6]; 31 g ai/ha): 50; Plant response rating, Kochia (kochia (Kochia scoparia) [7]; 31 g ai/ha): 40; Plant response rating, Ragweed ([8]; 31 g ai/ha): 80; Plant response rating, Ryegrass, It. ([9]; 31 g ai/ha): 40; Plant response rating, Ryegrass, It. ([9]; 125 g ai/ha): 80; Plant response rating, Pigweed ([10]; 31 g ai/ha): 90; Plant response rating, Wheat ([11]; 31 g ai/ha): 0; Plant response rating, Corn (corn (Zea mays); 31 g ai/ha): 0; Plant response rating, Blackgrass ([12]; 31 g ai/ha): 20; Plant response rating, Galium ([13]; 31 g ai/ha): 90; Plant response rating, Foxtail, Giant (Foxtail, Giant [17]; 31 g ai/ha): 60 |
